Laboratory results published in patent US20240400555A1 (Initial Therapeutics, Inc., priority 2023, published 2024).

The compounds below were run on MV-4-11 cells (assay: Cell Viability Assay in MV-4-11 Cells). Conditions: Homo sapiens, MV4-11, 72 h, MV-4-11 cells, 72 h, Cell-Titer Glo; read-out: IC50.
Type: cell-based
Summary of the method: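 MV-4-11 cells at 7,000/well in IMDM with 10% FBS, exposed to compound for 72 h. Viability by CellTiter-Glo luminescence, normalized to DMSO as 100%, fitted with a four-parameter curve.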
`Cc1cccc2ccnc(N(C(=O)c3ccc(Nc4nccc(N5[C@H](C)COC[C@@H]5C)n4)cc3F)[C@@H]3CCCNC3)c12` [Example 940, 4-((4-((3R,5S)-3,5-dimethylmorpholino)pyrimidin-2-yl)amino)-2-fluoro-N-(8-methylisoquinolin-1-yl)-N—((R)-piperidin-3-yl)benzamide] was tested, and the IC50 was 34 nM. Compound `COC(=O)CCC#Cc1cccc(C(=O)N(c2nccc3cccc(C)c23)[C@@H]2CCCNC2)c1` [Example 589, methyl (R)-5-(3-((8-methylisoquinolin-1-yl)(piperidin-3-yl)carbamoyl)phenyl)pent-4-ynoate] has an IC50 of 1000 nM. For `Cc1cccc2ccnc(N(C(=O)c3ccc(Nc4nccc(-c5ccncc5)n4)cc3F)[C@@H]3CCCNC3)c12` [Example 558, (R)-2-fluoro-N-(8-methylisoquinolin-1-yl)-N-(piperidin-3-yl)-4-((4-(pyridin-4-yl)pyrimidin-2-yl)amino)benzamide], the IC50 was 11 nM. For `COC(=O)c1ccnc(Nc2ccc(C(=O)N(c3nccc4cccc(C)c34)[C@@H]3CCCNC3)c(F)c2)n1` [Example 400, methyl (R)-2-((3-fluoro-4-((8-methylisoquinolin-1-yl)(piperidin-3-yl)carbamoyl)phenyl)amino)pyrimidine-4-carboxylate], the IC50 was 2400 nM. Compound `CCC(C)N(C)c1ccnc(Nc2ccc(C(=O)N(c3nccc4cccc(C)c34)[C@@H]3CCCNC3)c(F)c2)n1` (stereo partly drawn) [Example 952, 4-((4-(sec-butyl(methyl)amino)pyrimidin-2-yl)amino)-2-fluoro-N-(8-methylisoquinolin-1-yl)-N—((R)-piperidin-3-yl)benzamide] has an IC50 of 130 nM. With `O=C(c1ccc(-n2nnc3cccnc32)cc1F)N(c1nccc2sc(-c3cccc(CO)c3)cc12)[C@@H]1CCCNC1` [Example 424, 2-fluoro-N-[2-[3-(hydroxymethyl)phenyl]thieno[3,2-c]pyridin-4-yl]-N-[(3R)-3-piperidyl]-4-(triazolo[4,5-b]pyridin-3-yl)benzamide] the IC50 was 110 nM. `Cc1cccc2ccnc(N(C(=O)c3ccc(Nc4ncnc(N5CCOCC5)n4)cc3F)[C@@H]3CCCNC3)c12` [Example 970, 2-fluoro-N-(8-methylisoquinolin-1-yl)-4-{[4-(morpholin-4-yl)-1,3,5-triazin-2-yl]amino}-N-[(3R)-piperidin-3-yl]benzamide] showed an IC50 of 34 nM. In the case of `Cc1cccc2ccnc(N(C(=O)c3ccc(Nc4ncc(CO)cn4)cc3F)[C@@H]3CCCNC3)c12` [Example 322, (R)-2-fluoro-4-((5-(hydroxymethyl)pyrimidin-2-yl)amino)-N-(8-methylisoquinolin-1-yl)-N-(piperidin-3-yl)benzamide], the IC50 is reported as 180 nM. `N#Cc1ccc(-c2cc3c(N(C(=O)c4ccc(-n5nnc6cccnc65)cc4F)[C@@H]4CCCNC4)nccc3s2)s1` [Example 425, N-[2-(5-cyano-2-thienyl)thieno[3,2-c]pyridin-4-yl]-2-fluoro-N-[(3R)-3-piperidyl]-4-(triazolo[4,5-b]pyridin-3-yl)benzamide] was tested, and the IC50 was 230 nM. With `COCc1nnc(-c2ccc(C(=O)N(c3nccc4cc(F)cc(C)c34)[C@@H]3CCCNC3)c(F)c2)s1` [Example 853, 2-fluoro-N-(6-fluoro-8-methyl-1-isoquinolyl)-4-[5-(methoxymethyl)-1,3,4-thiadiazol-2-yl]-N-[(3R)-3-piperidyl]benzamide] the IC50 was 55 nM. Work on `NC(=O)c1ccc(-c2cc3c(N(C(=O)c4ccc(-c5cnn6c5CCCC6)cc4F)[C@@H]4CCCNC4)nccc3s2)cc1` [Example 825, N-[2-(4-carbamoylphenyl)thieno[3,2-c]pyridin-4-yl]-2-fluoro-N-[(3R)-3-piperidyl]-4-(4,5,6,7-tetrahydropyrazolo[1,5-a]pyridin-3-yl)benzamide] yielded an IC50 of 1000 nM. `Cc1csc2ccnc(N(C(=O)c3ccc(-c4nnc(CCC#N)s4)nc3)[C@@H]3CCCNC3)c12` [Example 912, 6-[5-(2-cyanoethyl)-1,3,4-thiadiazol-2-yl]-N-(3-methylthieno[3,2-c]pyridin-4-yl)-N-[(3R)-3-piperidyl]pyridine-3-carboxamide] showed an IC50 of 170 nM. Work on `[2H]C([2H])([2H])c1nnc(-c2ccc(C(=O)N(c3nccc4cc(F)cc(C)c34)[C@@H]3CCCNC3)c(F)c2)s1` [Example 767, 2-fluoro-N-(6-fluoro-8-methyl-1-isoquinolyl)-N-[(3R)-3-piperidyl]-4-[5-(trideuteriomethyl)-1,3,4-thiadiazol-2-yl]benzamide] yielded an IC50 of 130 nM. `COC[C@@H]1COCCN1c1ccnc(Nc2ccc(C(=O)N(c3nccc4cccc(C)c34)[C@@H]3CCCNC3)c(F)c2)n1` [Example 943, 2-fluoro-4-(4-((R)-3-(methoxymethyl)morpholino)pyrimidin-2-ylamino)-N-(8-methylisoquinolin-1-yl)-N—((R)-piperidin-3-yl)benzamide] was tested, and the IC50 was 80 nM. Work on `[2H]C([2H])([2H])Oc1cc(C)c2c(N(C(=O)c3ccc(-c4cn(CC)nn4)cc3F)[C@@H]3CCCNC3)nccc2c1` [Example 889, 4-(1-ethyltriazol-4-yl)-2-fluoro-N-[8-methyl-6-(trideuteriomethoxy)-1-isoquinolyl]-N-[(3R)-3-piperidyl]benzamide] yielded an IC50 of 41 nM. For `Cn1cc(-c2ccc(C(=O)N(c3nccc4sc(Cc5ccccc5)cc34)[C@@H]3CCCNC3)c(F)c2)nn1` [Example 487, N-(2-benzylthieno[3,2-c]pyridin-4-yl)-2-fluoro-4-(1-methyltriazol-4-yl)-N-[(3R)-3-piperidyl]benzamide], the IC50 was 620 nM. `Cc1cccc2ccnc(N(C(=O)c3ccc(Nc4nccc(N5CCCC[C@H]5CO)n4)cc3F)[C@@H]3CCCNC3)c12` [Example 960, 2-fluoro-4-((4-((S)-2-(hydroxymethyl)piperidin-1-yl)pyrimidin-2-yl)amino)-N-(8-methylisoquinolin-1-yl)-N—((R)-piperidin-3-yl)benzamide] was tested, and the IC50 was 110 nM. For `Cc1nn(C)c(-c2ccc(C(=O)N(c3nccc4cccc(C)c34)[C@@H]3CCCNC3)c(F)c2)c1N` [Example 392, 4-(4-amino-2,5-dimethyl-pyrazol-3-yl)-2-fluoro-N-(8-methyl-1-isoquinolyl)-N-[(3R)-3-piperidyl]benzamide], the IC50 was 840 nM. `COc1ccc2c(N(C(=O)c3ccc(-c4cn(C)nn4)cc3)[C@@H]3CCCNC3)nccc2c1Cl` [Example 869, N-(5-chloro-6-methoxy-1-isoquinolyl)-4-(1-methyltriazol-4-yl)-N-[(3R)-3-piperidyl]benzamide] was tested, and the IC50 was 1400 nM. Compound `O=C(c1ccc(-n2nnc3cccnc32)cc1F)N(c1nccc2sc(-c3ccnnc3)cc12)[C@@H]1CCCNC1` [Example 455, 2-fluoro-N-[(3R)-3-piperidyl]-N-(2-pyridazin-4-ylthieno[3,2-c]pyridin-4-yl)-4-(triazolo[4,5-b]pyridin-3-yl)benzamide] has an IC50 of 650 nM. `Cn1cc(-c2ccc(C(=O)N(c3nccc4sc(-c5cccc(C(N)=O)c5)cc34)[C@@H]3CCCNC3)c(F)c2)nn1` [Example 480, N-[2-(3-carbamoylphenyl)thieno [3,2-c]pyridin-4-yl]-2-fluoro-4-(1-methyltriazol-4-yl)-N-[(3R)-3-piperidyl] benzamide] was tested, and the IC50 was 540 nM. For `Cc1cccc2ccnc(N(C(=O)c3ccc(-c4cn(C)nn4)cc3Cl)[C@@H]3CCCNC3)c12` [Example 822, (R)-2-chloro-4-(1-methyl-1H-1,2,3-triazol-4-yl)-N-(8-methylisoquinolin-1-yl)-N-(piperidin-3-yl)benzamide], the IC50 was 390 nM. `CC(=O)N1CCN(c2ccnc(Nc3ccc(C(=O)N(c4nccc5cccc(C)c45)[C@@H]4CCCNC4)c(F)c3)n2)CC1` [Example 933, (R)-4-((4-(4-acetylpiperazin-1-yl)pyrimidin-2-yl)amino)-2-fluoro-N-(8-methylisoquinolin-1-yl)-N-(piperidin-3-yl)benzamide] showed an IC50 of 180 nM. With `Cn1cc(-c2ccc(C(=O)N(c3nccc4sc(-c5cccc(N)c5)cc34)[C@@H]3CCCNC3)c(F)c2)nn1` [Example 509, N-[2-(3-aminophenyl)thieno[3,2-c]pyridin-4-yl]-2-fluoro-4-(1-methyltriazol-4-yl)-N-[(3R)-3-piperidyl]benzamidezamide] the IC50 was 520 nM. `Cc1noc(-c2ccc(C(=O)N(c3nccc4scc(C)c34)[C@@H]3CCCNC3)c(C)c2)n1` [Example 777, (R)-2-methyl-4-(3-methyl-1,2,4-oxadiazol-5-yl)-N-(3-methylthieno[3,2-c]pyridin-4-yl)-N-(piperidin-3-yl)benzamide] gave an IC50 of 720 nM. For `COCC#Cc1ccnc(Nc2ccc(C(=O)N(c3nccc4cccc(C)c34)[C@@H]3CCCNC3)c(F)c2)n1` [Example 751, (R)-2-fluoro-4-((4-(3-methoxyprop-1-yn-1-yl)pyrimidin-2-yl)amino)-N-(8-methylisoquinolin-1-yl)-N-(piperidin-3-yl)benzamide], the IC50 was 190 nM. Compound `Cc1ccc(Cl)c2ccnc(N(C(=O)c3ccc(-c4cn(C)nn4)cc3)[C@@H]3CCCNC3)c12` [Example 855, N-(5-chloro-8-methyl-1-isoquinolyl)-4-(1-methyltriazol-4-yl)-N-[(3R)-3-piperidyl]benzamide] has an IC50 of 420 nM. `Cc1cc(Cl)cc2ccnc(N(C(=O)c3ccc(-c4cn(C)nn4)nc3)[C@@H]3CCCNC3)c12` [Example 884, N-(6-chloro-8-methyl-1-isoquinolyl)-6-(1-methyltriazol-4-yl)-N-[(3R)-3-piperidyl]pyridine-3-carboxamide] gave an IC50 of 57 nM. Work on `Cc1cccc2ccnc(N(C(=O)c3ccc(Nc4nccc(N5CCC(c6ccncc6)CC5)n4)cc3F)[C@@H]3CCCNC3)c12` [Example 962, (R)-2-fluoro-N-(8-methylisoquinolin-1-yl)-N-(piperidin-3-yl)-4-((4-(4-(pyridin-4-yl)piperidin-1-yl)pyrimidin-2-yl)amino)benzamide] yielded an IC50 of 15 nM. Compound `C#Cc1csc2c(N(C(=O)c3ccc(-c4cn(C)nn4)cc3F)[C@@H]3CCCNC3)nccc12` [Example 676, N-(3-ethynylthieno[2,3-c]704yridine-7-yl)-2-fluoro-4-(1-methyltriazol-4-yl)-N-[(3R)-3-piperidyl]benzamide] has an IC50 of 190 nM. `Cc1nnc(-c2ccc(C(=O)N(c3nccc4cc(Cl)cc(C)c34)[C@@H]3CCCNC3)cc2)o1` [Example 772, (R)—N-(6-chloro-8-methylisoquinolin-1-yl)-4-(5-methyl-1,3,4-oxadiazol-2-yl)-N-(piperidin-3-yl)benzamide] gave an IC50 of 130 nM.
